Measurements published in patent US20220281930A1, “COMPOSITIONS AND METHODS FOR THE TREATMENT OF PATHOLOGICAL PAIN AND ITCH” (DUKE UNIVERSITY, priority 2019, published 2022).

How the values were obtained:
[1] = test system: brain reward mechanisms; test: Conditioned place preference (CPP); format: in vivo, mouse; conditions: 30 mg/kg i.p.; KP vs vehicle
Protocol: Conditioned place preference (CPP) was conducted using a CPP box, which consists of two conditioning chambers distinguished by visual and sensory cues, along with a small buffering chamber. All mice received a 3-day preconditioning habituation period with free access to both conditioning chambers and the time spent in each chamber was recorded for 15 min on day 3 after habituation. On conditioning days (day 4-10), mice first received the vehicle control (i.p. 5% DMSO, 5% Tween-80 in normal saline) paired with a randomly chosen chamber in the morning. After 4 hours, mice received KP (i.p. 30 mg/kg) or vehicle, paired with the other chamber. During the conditioning, mice were allowed to stay only in the paired chamber for 15 min without access to other chambers. On test day (d11), mice were placed in the buffering chamber with free access to both conditioning chambers and choice behavior was recorded for 15 min. The CPP scores were calculated as post-conditioning time minus preconditioning time spent in the paired chamber.
With these beneficial effects of KP on pathologic pain and itch, whether KP had undesirable effects on the CNS in terms of sedation, impairment of motor stamina, balance and coordination was assessed. […]

[2] = test system: N2a cultured cells; test: Neuronalization of N2a cultured cells; format: cell-based, mouse; conditions: KP 0.2 μM for 3 days

For `O=C1Cc2c([nH]c3ccc(Br)cc23)-c2ccccc2N1` [kenpaullone, 9-bromo-7,12-dihydro-indolo [3,2-d] [1]benzazepin-6(5H)-one], the CPP scores [1] was “No significant difference in CPP scores” and the neuronal differentiation [2] was “increased process formation”.
